According to patent US20220204476A1, “RNA VIRUS INHIBITOR COMPOUNDS AND USES THEREOF” (The Governors of the University of Alberta, priority 2020, published 2022):

Experiments:
SARS-CoV-2 3CLP = SARS-CoV-2 3CLP (Severe acute respiratory syndrome coronavirus 2, UniProt P0DTD1); assay: SARS-CoV-2 3CLP inhibition, FRET-based cleavage assay; assay type: biochemical; details: 80 nM SARS-CoV-2 3CLP, 100 μM substrate, 37° C., 10 min incubation, pH 7.8; read-out: 3CL Protease IC50
SARS-CoV-2 = SARS-CoV-2 in vitro plaque reduction assay in Vero E6 cells; assay type: cell-based; details: Severe acute respiratory syndrome coronavirus 2, Vero C1008, MOI 0.0001 pfu/cell, plaques counted after 48 h, >5 μM = did not reduce plaque numbers by half at 10 μM, read-out: SARS-CoV-2 Antiviral EC50

| SMILES | IC50 (SARS-CoV-2 3CLP) [nM] | EC50 (SARS-CoV-2) [nM] |
| --- | --- | --- |
| COc1cccc2[nH]c(C(=O)N[C@@H](CC(C)C)C(=O)N[C@@H](C[C@@H]3CCNC3=O)C(=O)COC(=O)c3c(C(F)(F)F)cccc3C(F)(F)F)cc12 [Compound 25, (3S)-3-{[N-(4-methoxy-1H-indole-2-carbonyl)-L-leucyl]amino}-2-oxo-4-[(3S)-2-oxopyrrolidin-3-yl]butyl 2,6-bis(trifluoromethyl)benzoate] | 18 | < 250 |
| COc1cccc2[nH]c(C(=O)N[C@@H](CC(C)C)C(=O)N[C@@H](C[C@@H]3CCNC3=O)C(=O)COC(=O)C(C)(C)C(F)(F)F)cc12 [Compound 27, (3S)-3-{[N-(4-methoxy-1H-indole-2-carbonyl)-L-leucyl]amino}-2-oxo-4-[(3S)-2-oxopyrrolidin-3-yl]butyl 3,3,3-trifluoro-2,2-dimethylpropanoate] | 29 | > 5000 |
| COc1cccc2[nH]c(C(=O)N[C@@H](CC(C)C)C(=O)N[C@@H](C[C@@H]3CCCNC3=O)C(=O)COc3ccc(S(C)(=O)=O)cc3)cc12 [Compound 30, N-[(2S)-1-({(2S)-4-[4-(methanesulfonyl)phenoxy]-3-oxo-1-[(3S)-2-oxopiperidin-3-yl]butan-2-yl}amino)-4-methyl-1-oxopentan-2-yl]-4-methoxy-1H-indole-2-carboxamide] | 53 | > 5000 |
| CC(C)C[C@H](NC(=O)OCc1ccccc1)C(=O)N[C@H](C#N)C[C@@H]1CCCNC1=O [Compound 66, N^2-[(benzyloxy)carbonyl]-N-{(1S)-1-cyano-2-[(3S)-2-oxopiperidin-3-yl]ethyl}-L-leucinamide] | 340 | > 5000 |
| CC(C)C[C@H](NC(=O)OCC1c2ccccc2-c2ccccc21)C(=O)N[C@H](C#N)C[C@@H]1CCCNC1=O [Compound 67, N-{(1S)-1-cyano-2-[(3S)-2-oxopiperidin-3-yl]ethyl}-N^2-{[(9H-fluoren-9-yl)methoxy]carbonyl}-L-leucinamide] | 170 | 4100 |
| COc1cc(Cl)cc2[nH]c(C(=O)N[C@@H](CC(C)C)C(=O)N[C@H](C#N)C[C@@H]3CCCNC3=O)cc12 [Compound 68, 6-chloro-N-[(2S)-1-({(1S)-1-cyano-2-[(3S)-2-oxopiperidin-3-yl]ethyl}amino)-4-methyl-1-oxopentan-2-yl]-4-methoxy-1H-indole-2-carboxamide] | 9.1 | 2200 |
| CC(C)C[C@H](NC(=O)c1nc(-c2ccccc2)c[nH]1)C(=O)N[C@H](C#N)C[C@@H]1CCCNC1=O [Compound 75, N-{(1S)-1-cyano-2-[(3S)-2-oxopiperidin-3-yl]ethyl}-N^2-(4-phenyl-1H-imidazole-2-carbonyl)-L-leucinamide] | 160 | > 5000 |
| CC(C)C[C@H](NC(=O)C1(O)CCCC1)C(=O)N[C@H](C#N)C[C@@H]1CCCNC1=O [Compound 76, N-{(1S)-1-cyano-2-[(3S)-2-oxopiperidin-3-yl]ethyl}-N^2-(1-hydroxycyclopentane-1-carbonyl)-L-leucinamide] | 950 | > 5000 |
| CC(C)C[C@H](NCC1CC1)C(=O)N[C@H](C#N)C[C@@H]1CCCNC1=O [Compound 77, N-{(1S)-1-cyano-2-[(3S)-2-oxopiperidin-3-yl]ethyl}-N^2-(cyclopropylmethyl)-L-leucinamide] | 17000 | > 5000 |
| CC(C)C[C@H](NCc1ccc[nH]c1=O)C(=O)N[C@H](C#N)C[C@@H]1CCCNC1=O [Compound 78, N-{(1S)-1-cyano-2-[(3S)-2-oxopiperidin-3-yl]ethyl}-N^2-[(2-oxo-1,2-dihydropyridin-3-yl)methyl]-L-leucinamide] | 47000 | > 5000 |
| CC(C)C[C@H](NC(=O)c1cc2ccccc2o1)C(=O)N[C@H](C#N)C[C@@H]1CCCNC1=O [Compound 79, N-[(2S)-1-({(1S)-1-cyano-2-[(3S)-2-oxopiperidin-3-yl]ethyl}amino)-4-methyl-1-oxopentan-2-yl]-1-benzofuran-2-carboxamide] | 250 | 4500 |
| CC(C)C[C@H](NC(=O)[C@H]1CCCO1)C(=O)N[C@H](C#N)C[C@@H]1CCCNC1=O [Compound 80, N-{(1S)-1-cyano-2-[(3S)-2-oxopiperidin-3-yl]ethyl}-N^2-[(2R)-oxolane-2-carbonyl]-L-leucinamide] | 710 | > 5000 |
| Cc1ccc(C(=O)N[C@@H](CC(C)C)C(=O)N[C@H](C#N)C[C@@H]2CCCNC2=O)cn1 [Compound 81, N-{(1S)-1-cyano-2-[(3S)-2-oxopiperidin-3-yl]ethyl}-N^2-(6-methylpyridine-3-carbonyl)-L-leucinamide] | 620 | > 5000 |
| CC(C)C[C@H](NS(=O)(=O)c1cccc2c1OCCO2)C(=O)N[C@H](C#N)C[C@@H]1CCCNC1=O [Compound 82, N-{(1S)-1-cyano-2-[(3S)-2-oxopiperidin-3-yl]ethyl}-N^2-(2,3-dihydro-1,4-benzodioxine-5-sulfonyl)-L-leucinamide] | 2400 | > 5000 |
| CC(C)C[C@H](NS(=O)(=O)N1CCCCC1)C(=O)N[C@H](C#N)C[C@@H]1CCCNC1=O [Compound 83, N-{(1S)-1-cyano-2-[(3S)-2-oxopiperidin-3-yl]ethyl}-N^2-(piperidine-1-sulfonyl)-L-leucinamide] | 4500 | > 5000 |
| CC(C)C[C@H](NS(=O)(=O)C1CCCCC1)C(=O)N[C@H](C#N)C[C@@H]1CCCNC1=O [Compound 84, N-{(1S)-1-cyano-2-[(3S)-2-oxopiperidin-3-yl]ethyl}-N^2-(cyclohexanesulfonyl)-L-leucinamide] | 3100 | > 5000 |
| Cc1ccc(S(=O)(=O)N[C@@H](CC(C)C)C(=O)N[C@H](C#N)C[C@@H]2CCCNC2=O)cn1 [Compound 85, N-{(1S)-1-cyano-2-[(3S)-2-oxopiperidin-3-yl]ethyl}-N^2-(6-methylpyridine-3-sulfonyl)-L-leucinamide] | 6400 | > 5000 |
| CC(C)(C)C[C@H](NC(=O)OCC1c2ccccc2-c2ccccc21)C(=O)N[C@H](C#N)C[C@@H]1CCCNC1=O [Compound 86, N-{(1S)-1-cyano-2-[(3S)-2-oxopiperidin-3-yl]ethyl}-N^2-{[(9H-fluoren-9-yl)methoxy]carbonyl}-4-methyl-L-leucinamide] | 110 | 4300 |
| Cc1cc(C)c(C(=O)OCC(=O)[C@H](C[C@@H]2CCCNC2=O)NC(=O)[C@H](CC(C)(C)C)NC(=O)[C@H]2CCCO2)c(C)n1 [Compound 87, (3S)-3-({4-methyl-N-[(2R)-oxolane-2-carbonyl]-L-leucyl}amino)-2-oxo-4-[(3S)-2-oxopiperidin-3-yl]butyl 2,4,6-trimethylpyridine-3-carboxylate] | 200 | 1900 |
| CC(C)(C)C[C@H](NC(=O)c1nc2ccccc2[nH]1)C(=O)N[C@H](C#N)C[C@@H]1CCCNC1=O [Compound 88, N-[(2S)-1-({(1S)-1-cyano-2-[(3S)-2-oxopiperidin-3-yl]ethyl}amino)-4,4-dimethyl-1-oxopentan-2-yl]-1H-benzimidazole-2-carboxamide] | 40 | > 5000 |
| CC(C)(C)C[C@H](NC(=O)[C@@H]1CCCN1C(=O)OCc1ccccc1)C(=O)N[C@H](C#N)C[C@@H]1CCCNC1=O [Compound 89, 1-[(benzyloxy)carbonyl]prolyl-N-{(1S)-1-cyano-2-[(3S)-2-oxopiperidin-3-yl]ethyl}-4-methyl-L-leucinamide] | 2800 | > 5000 |
| CC(C)(C)C[C@H](NC(=O)[C@@H]1CCCN1)C(=O)N[C@H](C#N)C[C@@H]1CCCNC1=O [Compound 90, prolyl-N-{(1S)-1-cyano-2-[(3S)-2-oxopiperidin-3-yl]ethyl}-4-methyl-L-leucinamide] | 1100 | > 5000 |
| CC(C)C[C@H](NCc1ncco1)C(=O)N[C@H](C#N)C[C@@H]1CCCNC1=O [Compound 91, N-{(1S)-1-cyano-2-[(3S)-2-oxopiperidin-3-yl]ethyl}-N^2-[(1,3-oxazol-2-yl)methyl]-L-leucinamide] | 37000 | > 5000 |
| CC(C)C[C@H](NC[C@@H]1CCCO1)C(=O)N[C@H](C#N)C[C@@H]1CCCNC1=O [Compound 92, N-{(1S)-1-cyano-2-[(3S)-2-oxopiperidin-3-yl]ethyl}-N^2-{[(2S)-oxolan-2-yl]methyl}-L-leucinamide] | 104000 | > 5000 |
| COc1cccc2oc(C(=O)N[C@@H](CC(C)(C)C)C(=O)N[C@H](C#N)C[C@@H]3CCCNC3=O)cc12 [Compound 93, N-[(2S)-1-({(1S)-1-cyano-2-[(3S)-2-oxopiperidin-3-yl]ethyl}amino)-4,4-dimethyl-1-oxopentan-2-yl]-4-methoxy-1-benzofuran-2-carboxamide] | 240 | > 5000 |
| N#C[C@H](C[C@@H]1CCNC1=O)NC(=O)[C@H](CC1CCCCC1)NC(=O)OCc1cccc(Cl)c1 [Compound 94, (3-chlorophenyl)methyl [(2S)-1-({(1S)-1-cyano-2-[(3S)-2-oxopyrrolidin-3-yl]ethyl}amino)-3-cyclohexyl-1-oxopropan-2-yl]carbamate] | 160 | > 5000 |
| CC(C)C[C@H](NCC1CCCCC1)C(=O)N[C@H](C#N)C[C@@H]1CCCNC1=O [Compound 95, N-{(1S)-1-cyano-2-[(3S)-2-oxopiperidin-3-yl]ethyl}-N^2-(cyclohexylmethyl)-L-leucinamide] | 97000 | > 5000 |
| COc1nccc2[nH]c(C(=O)N[C@@H](CC(C)(C)C)C(=O)N[C@H](C#N)C[C@@H]3CCCNC3=O)cc12 [Compound 99, N-[(2S)-1-({(1S)-1-cyano-2-[(3S)-2-oxopiperidin-3-yl]ethyl}amino)-4,4-dimethyl-1-oxopentan-2-yl]-4-methoxy-1H-pyrrolo[3,2-c]pyridine-2-carboxamide] | 22 | > 5000 |
